The record followed here is US20090220566A1, “BIOIMPLANTS FOR USE IN TISSUE GROWTH” (priority 2006, published 2009).

The subject of this data set is tissue ingrowth, specifically angiogenesis and vascularization. As to conditions: for conclusion on stimulation of wound healing: selenium at 0.25 ng/mm^3 of the implant, cobalt at 0.45 ng per mm^3 of the implant; for wound tissue / tissue ingrowth in the pores (histological sections): 3 μl per half implant of 70 μM salt in Hank's balanced salt solution on the closed pore. How it is done: Brushite and hydroxyapatite cuboid bioimplants (434±4 mg dry weight) with a 2D branched structure (Y-shape pore) were produced by cement printing following a method previously developed (Hölzel, 2005). The pore was 1.31 mm diameter and open in the middle of one smaller face and decreased in diameter to 1 mm as it branched in the centre of the block. One branch emerged on an adjacent face while the other was a ‘blind’ closed pore. 5 μl of 70 μM copper sulphate solution was deposited at the end of the blind closed pore of the Y as represented in FIG. 2B. This solution thus contained a total of […] of copper sulphate, i.e. 22 ng of copper ions. It was absorbed onto a small localised volume ca 5 mm^3, of the implant of dimensions 8×8×4 mm, (approximately 250 mm^3). This copper thus represented 88 ng per cm^3.
Brushite and hydroxyapatite materials were implanted in animals for 15 days in order to observe tissue ingrowth, specifically angiogenesis and vascularization. In order to facilitate observation of tissue ingrowth the implants were made in two mirror image halves that keyed into one another and split the pore cavity along its symmetrical axis (FIG. 2). A 5 μl solution of copper sulfate at low concentration (0.07 mM) was deposited at the end of the closed pore, dried, and implanted in the abdominal cavity (i.e., intraperitoneally) in mice for 15 days. The retrieved implants were opened and examined for tissue ingrowth (FIG. 2C). […] This is in comparison to control implants with no adsorption of copper (FIG. 2D).
Similar to the implants with copper as described above, solutions (3 μl per half implant) of manganese chloride, sodium selenium, silver nitrate, zinc chloride, and cobalt chloride diluted in Hank's balanced salt solution (vehicle) were adsorbed on the closed pore on each half. They were used respectively at 70 μM. The final amounts of the metals ranged from 10 to 200 ng per implant. These conditions were compared to vehicle (HBBS) as control and copper (70 μM)
After 15 days of implantation in peritoneal site in mice, the implants were retrieved and histological sections of the tissue ingrowth in the pores were processed.

Where [1] appears, read: 3 μl per half implant of 70 μM salt on the closed pore, 15 days peritoneal site in mice.
Where [2] appears, read: 15 days peritoneal site in mice.

In the case of `[Cl][Co][Cl]` [cobalt, cobalt chloride], the “conclusion on stimulation of wound healing” value is “enhances particularly blood vessel formation”. The microvessels by histology result under setting [1] is “microvessels with transgression of inflammatory cells were observed”.

Regarding `O=S(=O)([O-])[O-].[Cu+2]` [copper sulfate], for the setting “mouse, in vivo”, the blood vessels observed entry was “No blood vessels were observed”, the “concentrations of copper suitable to encourage endothelial cell growth into a 1.3 mm diameter pore opening at the surface of an implant” value was “below 20 μg/mm^3”, the “mean blood vessel in-growth distance” value worked out at 4.3 mm and the “mean distance over which blood vessels were observed to grow from the large pore opening to the closed pore end” value is listed as “nearly the entire length”. In addition, where the note is “mouse, in vivo”, the “tissue infiltrating the pore” value is “tissue rich in leukocytes and dead cells”; the “tissue ingrowth in the pores” value is recorded as “vascular tissue”.

Take `O=[Se]([O-])[O-].[Na+].[Na+]` [selenium, sodium selenium]: the “conclusion on stimulation of wound healing” value is listed as “may enhance tissue maturation”. The “wound tissue / tissue ingrowth in the pores (histological sections)” value under setting [2] is recorded as “immature wound tissue”. Moreover, the “orientation of tissue ingrowth towards the closed (loaded) pore” value (“orientation” below) under setting [1] was “oriented towards the closed pore”.

Regarding `O=[N+]([O-])[O-].[Ag+]` [silver, silver nitrate], under setting [1], the “orientation” value is given as “no orientation towards the closed pore”.

On to `[Cl-].[Cl-].[Zn+2]` [zinc, zinc chloride], for which the “orientation” value under setting [1] is “no orientation towards the closed pore”.

In the case of VEGF, under “mouse, in vivo”, the “mean blood vessel in-growth distance” value stood at 3.7 mm and the “mean distance over which blood vessels were observed to grow from the large pore opening to the closed pore end” value is recorded as “nearly the entire length”.

For the compound manganese chloride, under setting [2], the “wound tissue / tissue ingrowth in the pores (histological sections)” value was “a bloody tissue was formed in the pores”.
